Measurements as given in patent US7034005B2, “Use of agent for suppressing infection and proliferation of human immunodeficiency syndrome virus” (The Kitasato Institute, priority 2002, dated 2006).
“Also recorded” adds a separate entry of the source.

Test system: HIV-1BAL strain in M type macrophage (M-MΦ) derived from human monocytes
Test: Proliferation of HIV-1 in M-MΦ: p24 protein in culture supernatant by sandwich ELISA
Type: cell-based
Conditions: HIV-1BAL; for viral production in M-MΦ at 30 μM: incubated for 10 days (FIGS. 21-25); for production of p24 protein in M-MΦ at various concentrations: incubated for 10 days, compared with DMSO (FIGS. 21-25); for p24 protein / viral proliferation in M-MΦ with kinase inhibitor: 10 μM, up to day 14, compared with control group (FIG. 20)
Description: Macrophages derived from monocytes were prepared by culturing the recovered monocytes in the presence of M-CSF (macrophage colony-stimulating factor) (10^4 U/ml, provided by Morinaga Milk Co.), granulocytes and granulocyte-macrophage colony-stimulating factor, GM-CSF) (500 U/ml, provided by Japan Scheling Plough Co., Osaka, or purchased from R & S Genzyme-TECHNE Inc.) with RPMI1640 medium added with FCS10% (Nissui Seiyaku Co., Tokyo) for 7–8 days.
The macrophage prepared by differential induction of M-CSF from human monocytes is designated as M type macrophage (M type MΦ or M-MΦ) and the macrophage prepared by differential induction of GM-CSF from human monocytes is designated as GM type macrophage (GM type MΦ or GM-MΦ) Further, alveolar macrophage (alveolar MΦ or A-MΦ) was prepared as follows. Cells in the alveolar lavage liquid obtained from the alveolar lavage of healthy volunteers were recovered, suspended and adhered to plastics, then the non-adhered cells were washed out and the remained adhered cells were designated as the alveolar MΦ.
Infection of HIV-1 to macrophage was performed as follows. Macrophage directed viral strains, HIV-1JR-FL and HIV-1BAL, were infected for 2 hours in contact with M-MΦ, GM-MΦ and A-MΦ (adjusted to 2.5×10^5/well, Flacon No3043: Becton Dickinson Labware, Inc. U.S.)at low concentration (p24 antigen titer 50 ng/ml, TCID50=3000/ml virus to final concentration at 100 pg/ml), and non-adsorbed virus to the macrophage was washed out, and cultured with adding fresh medium. In case of the medium with M-MΦ, M-CSF was added (10^4 U/ml), and that of the medium with GM-MΦ, GM-CSF was added (500 U/ml).
Proliferation of virus was examined with the released viral particles in the culture supernatant after the infection by the sandwich ELISA using two types of anti-p24 antibody (Nu24 and 10B5^13). The following JAM62 and JAM65 were used as LTR (HIV long terminal repeat)-gap gene primer. The following JAM63 and JAM 64 were used as the internal primer for the nested PCR. • JAM62: • 5′-[…]-3′ (SEQ ID NO: 1) • JAM65: • 5′-[…]-3′ (SEQ ID NO: 2) • JAM63: • 5′-GTGTOACTCTGGTAACTAGAGATCC-3′ (SEQ ID NO: 3) • JAM64: • 5′-[…]-3′ (SEQ ID NO: 4) (1-4) Assay of Expression of Tyrosine Kinase Hck Protein and Transcription Factor C/EBPβ Protein
In order to show growth suppression effect of the present invention, among macrolide derivatives, EM, EM201, EM202, EM703, CAM, EM722, EM730, EM732, EM736, EM734, EM735, EM747, EM748, EM743, EM746, EM750 or EM751 was dissolved in DMSO with each 100 mM concentration, and used in dilution with the medium thereafter. A control group was M-MΦ treated only with DMSO used for dissolving macrolide derivatives.
M-MΦ and GM-M Φ were subjected to contact infection with HIV-1BAL strain for 2 hours, added 30 μM of EM, EM201, EM202, EM703, CAM,EM722, EM730, EM732, EM736, EM734, EM735, EM747, EM748, EM743, EM746, EM750 or EM751, incubated for 14 days and amount of p24 protein in the cultured supernatant was assayed in the time-dependent manner.

Row | Molecule | viral production in M-MΦ at 30 μM | production of p24 protein in M-MΦ at various concentrations | p24 protein / viral proliferation in M-MΦ with kinase inhibitor
1 | CCCNC1CC(C)OC(OC2C(C)C(OC3CC(C)(OC)C(O)C(C)O3)C(C)C(=O)OC(C(C)(O)C(O)CC)C(C)C3=C(C)CC2(C)O3)C1O (stereo not shown) [EM730, bis-de(3′-N-methyl)-3′-N-propyl-8,9-anhydro-pseudo-erythromycin A 6,9-hemiketal] | inhibit almost completely viral production; also recorded: almost complete inhibition | suppressed depending on the concentration of agent | 
2 | CC[C@@H](O)[C@@](C)(O)[C@@H]1OC(=O)[C@H](C)[C@@H](O[C@H]2C[C@@](C)(OC)[C@@H](O)[C@H](C)O2)[C@H](C)[C@@H](O[C@@H]2O[C@H](C)C[C@H](N3CCCCC3)[C@H]2O)[C@@]2(C)CC(C)=C(O2)[C@@H]1C [EM734, de(3′-dimethylamino)-3′-piperidino-8,9-anhydro-pseudoerythromycin A 6,9-hemiketal] | inhibit almost completely viral production; also recorded: almost complete inhibition | suppressed depending on the concentration of agent | 
3 | CC[C@@H](O)[C@@](C)(O)[C@@H]1OC(=O)[C@H](C)[C@@H](O[C@H]2C[C@@](C)(OC)[C@@H](O)[C@H](C)O2)[C@H](C)[C@@H](O[C@@H]2O[C@H](C)C[C@H](N3CCCC3)[C@H]2O)[C@@]2(C)CC(C)=C(O2)[C@@H]1C [EM735, de(3′-dimethylamino)-3′-pyrrolidino-8,9-anhydro-pseudoerythromycin A 6,9-hemiketal] | inhibit almost completely viral production; also recorded: almost complete inhibition | suppressed depending on the concentration of agent | 
4 | CC[C@@H](O)[C@@](C)(O)[C@@H]1OC(=O)[C@H](C)[C@@H](O[C@H]2C[C@@](C)(OC)[C@@H](O)[C@H](C)O2)[C@H](C)[C@@H](O[C@@H]2O[C@H](C)C[C@H](NC(C)C)[C@H]2O)[C@@]2(C)CC(C)=C(O2)[C@@H]1C [EM736, bis-de(3′-N-methyl)-3′-N-(2-propyl)-8,9-anhydro-pseudoerythromycin A 6,9-hemiketal] | inhibit almost completely viral production; also recorded: almost complete inhibition | suppressed depending on the concentration of agent | 
5 | COC1(C)CC(OC2C(C)C(=O)OC(C(C)=NO)C(C)C3=C(C)CC(C)(O3)C(OC3OC(C)CC(N(C)C)C3O)C2C)OC(C)C1O (stereo not shown) [EM743, de(12-hydroxy)-de[12-(1-hydroxypropyl)]-12-hydroxy-oxime-8,9-anhydro-pseudoerythromycin A 6,9-hemiketal] | inhibit almost completely viral production; also recorded: almost complete inhibition | suppressed depending on the concentration of agent | 
6 | CC[C@@H](O)[C@@](C)(O)[C@@H]1OC(=O)[C@H](C)[C@@H](O[C@H]2C[C@@](C)(OC)[C@@H](O)[C@H](C)O2)[C@H](C)[C@@H](O[C@@H]2O[C@H](C)C[C@H](N3CCOCC3)[C@H]2O)[C@@]2(C)CC(C)=C(O2)[C@@H]1C [EM747, de(3′-dimethylamino)-3′-morpholino-8,9-anhydro-pseudoerythromycin A 6,9-hemiketal] | inhibit almost completely viral production; also recorded: almost complete inhibition | suppressed depending on the concentration of agent | 
7 | COC1(C)CC(OC2C(C)C(=O)OC(C(C)N)C(C)C3=C(C)CC(C)(O3)C(OC3OC(C)CC(N(C)C)C3O)C2C)OC(C)C1O (stereo not shown) [EM750, de(12-hydroxy)-de[12-(1-hydroxypropyl)]-12-amino-8,9-anhydro-pseudoerythromycin A 6,9-hemiketal] | inhibit almost completely viral production; also recorded: almost complete inhibition | suppressed depending on the concentration of agent | 
8 | CN[C@H]1C[C@@H](C)O[C@@H](O[C@@H]2[C@@H](C)[C@H](O[C@H]3C[C@@](C)(OC)[C@@H](O)[C@H](C)O3)[C@@H](C)C(=O)O[C@@H](C(C)O)[C@@H](C)C3=C(C)C[C@@]2(C)O3)[C@@H]1O (stereo partly shown) [EM751, de(3′-N-methyl)-de[12-(1-hydroxypropyl)]-8,9-anhydro-pseudoerythromycin A 6,9-hemiketal] | inhibit almost completely viral production; also recorded: almost complete inhibition | suppressed depending on the concentration of agent | 
9 | CCC(O)C(C)(O)C1OC(=O)C(C)C(O)C(C)C(OC2OC(C)CC(NC)C2O)C2(C)CC(C)=C(O2)C1C (stereo not shown) [EM754, de(3-O-cladinosyl)-de(3′-N-methyl)-8,9-anhydro-pseudoerythromycin A 6,9-hemiketal] | inhibit almost completely viral production; also recorded: almost complete inhibition | suppressed depending on the concentration of agent | 
10 | COc1cccc(-c2cc(=O)c3ccccc3o2)c1N [PD98059, 2-[2-amino-3-methoxyphenyl]-4H-1-benzopyran-4-one, reference compound] |  |  | amount of p24 protein was not different in the control group
11 | C[S+]([O-])c1ccc(-c2nc(-c3ccc(F)cc3)c(-c3ccncc3)[nH]2)cc1 (stereo not shown) [SB203580, 4-[4-fluoro-phenyl]-2-[4-methylsulfinylphenyl]-5-[4-pyridyl]-1H-imidazole, reference compound] |  |  | no p24 protein was almost detected even on day 14
12 | bis-de(3′-N-methyl)-3′-N-benzyl-8,9-anhydro-pseudo-erythromycin A 6,9-hemiketal [EM732] | inhibit almost completely viral production; also recorded: almost complete inhibition | suppressed depending on the concentration of agent | 
13 | bis-de(3′-N-methyl)-3′-N-ethyl-8,9-anhydro-pseudo-erythromycin A 6,9-hemiketal [EM722] | inhibit almost completely viral production; also recorded: almost complete inhibition | suppressed depending on the concentration of agent | 
14 | de(3′-dimethylamino)-3′-[hexahydro-1(1H)-azepinyl]-8,9-anhydro-pseudoerythromycin A 6,9-hemiketal [EM748] | inhibit almost completely viral production; also recorded: almost complete inhibition | suppressed depending on the concentration of agent | 
15 | de[12-(1-hydroxypropyl)]-8,9-anhydro-pseudo-erythromycin A 6,9-hemiketal [EM746] | inhibit almost completely viral production; also recorded: almost complete inhibition | suppressed depending on the concentration of agent | 
